# Measured values published in article PMC8609307 (2021).
# Tests used:
# [1] = test system: EC-136, Cy3-Cy5 dual-labeled (RNA, riboswitch, azido-uridine analog at 14) GUUCUCAACGGGGUGCCACGCGUACGCGUGCGCUGAGAAAAUACCCGUCGAACCUGAUCCGGAUAACGCCGGCGAAGGGAUUUGAGGCUCCUUCUCAAGUCCUUUGCCACUCUUUUUUGAGGUGCAAAGUGUUAAA; assay: smFRET; conditions: 20 mM MgCl2, 20 mM NaCl; poor folding at 1 mM TPP; none at 10 µM TPP
# [2] = test system: EC-28, Cy3-Cy5 dual-labeled (RNA, riboswitch, azido-uridine analog at 14) GUUCUCAACGGGGUGCCACGCGUACGCG; assay: smFRET; conditions: 20 mM MgCl2, 20 mM NaCl; tested at 1 mM TPP
# [3] = test system: EC-83 nascent transcript (RNA, riboswitch) GUUCUCAACGGGGUGCCACGCGUACGCGUGCGCUGAGAAAAUACCCGUCGAACCUGAUCCGGAUAACGCCGGCGAAGGGAUUU; assay: RNase H cleavage protection; conditions: 20 mM MgCl2, 20 mM NaCl (transcription buffer); stalled at pause site 83; Kswitch plot Figure 2D
# [4] = test system: EC-117, Cy3-Cy5 dual-labeled (RNA, riboswitch, azido-uridine analog at 14) GUUCUCAACGGGGUGCCACGCGUACGCGUGCGCUGAGAAAAUACCCGUCGAACCUGAUCCGGAUAACGCCGGCGAAGGGAUUUGAGGCUCCUUCUCAAGUCCUUUGCCACUCUUUUU; assay: smFRET; conditions: 20 mM MgCl2, 20 mM NaCl; 1 mM and 10 µM TPP
# [5] = test system: EC-88 WT, Cy3-Cy5 dual-labeled (RNA, riboswitch, azido-uridine analog at 14) GUUCUCAACGGGGUGCCACGCGUACGCGUGCGCUGAGAAAAUACCCGUCGAACCUGAUCCGGAUAACGCCGGCGAAGGGAUUUGAGGC; assay: smFRET; conditions: 20 mM MgCl2, 20 mM NaCl; 1 mM TPP
# [6] = test system: EC-88 G37C, Cy3-Cy5 dual-labeled (RNA, riboswitch, azido-uridine analog at 14) GUUCUCAACGGGGUGCCACGCGUACGCGUGCGCUGACAAAAUACCCGUCGAACCUGAUCCGGAUAACGCCGGCGAAGGGAUUUGAGGC; assay: smFRET; conditions: 20 mM MgCl2, 20 mM NaCl; tested at 1 mM TPP
# [7] = test system: EC-104, Cy3-Cy5 dual-labeled (RNA, riboswitch, azido-uridine analog at 14) GUUCUCAACGGGGUGCCACGCGUACGCGUGCGCUGAGAAAAUACCCGUCGAACCUGAUCCGGAUAACGCCGGCGAAGGGAUUUGAGGCUCCUUCUCAAGUCCUU; assay: smFRET; conditions: 20 mM MgCl2, 20 mM NaCl; 1 mM TPP
# [8] = test system: 117-nt transcript without RNAP, Cy3-Cy5 dual-labeled (RNA, riboswitch, azido-uridine analog at 14) GUUCUCAACGGGGUGCCACGCGUACGCGUGCGCUGAGAAAAUACCCGUCGAACCUGAUCCGGAUAACGCCGGCGAAGGGAUUUGAGGCUCCUUCUCAAGUCCUUUGCCACUCUUUUU; assay: smFRET; conditions: 20 mM MgCl2, 20 mM NaCl; tested at 1 mM TPP; no RNAP
smiles,measurement,setting,value
Cc1ncc(C[n+]2csc(CCOP(=O)(O)OP(=O)(O)O)c2C)c(N)n1,binding,[1],weak
same,binding,[2],no
same,binding,[3],no
same,binding,[4],yes
same,binding,[5],yes
same,binding,[6],no
same,binding,[7],yes
same,binding,[8],no
